ChEMBL document CHEMBL3885861, “Open TG-GATES”

Species on record: Rattus norvegicus
Experiment: Open TG-GATES - Regimen: Daily Repeat
Format: toxicity, organism-based, Sprague-Dawley
Set-up: regimen Daily Repeat, gender Male, age 6 weeks
Details: in vivo, po, 0 mg/kg, route gavage, dose level Control; for APTT / Bas / Eos / Fbg / Hb / Ht / Lym / MCH / MCHC / MCV / Mono / Neu / PT / Plat / RBC / Ret / WBC: tissue Blood; for KIDNEY_L / KIDNEY_R / KIDNEY_TOTAL: tissue Kidney; for LIVER: tissue Liver; for A/G / ALP / ALT / AST / BUN / CRE / Ca / Cl / DBIL / GLC / IP / K / LDH / Na / PL / RALB / TBIL / TC / TG / TP / gamma-GTP: tissue Plasma

## Clc1c(Cl)c(Cl)c(Cl)c(Cl)c1Cl [PERCHLOROBENZENE]
72 h, time 3 day
  TERMINAL_BW: 224.3 g
  APTT: 16.2 s
  Bas: 0%
  Eos: 1.2%
  Fbg: 217.4 mg/dL
  Hb: 13.7 g/dL
  Ht: 40.9%
  Lym: 77%
  MCH: 22 pg
  MCHC: 33.5%
  MCV: 65.6 fL
  Mono: 8%
  Neu: 13.8%
  PT: 11.8 s
  Plat: 98.6 x10_4/uL
  RBC: 623.2 x10_4/ul
  Ret: 8.6%
  WBC: 102.9 x10_2/uL
  KIDNEY_L: 1.1 g
  KIDNEY_R: 1.1 g
  KIDNEY_TOTAL: 2.2 g
  LIVER: 11.5 g
  A/G: 2.1
  ALP: 882.4 IU/L
  ALT: 40.2 IU/L
  AST: 59 IU/L
  BUN: 16.2 mg/dL
  CRE: 0.5 mg/dL
  Ca: 10.5 mg/dL
  Cl: 105.2 meq/L
  DBIL: 0.038 mg/dL
  GLC: 193.4 mg/dL
  IP: 8.5 mg/dL
  K: 5.4 meq/L
  LDH: 85.8 IU/L
  Na: 138.6 meq/L
  PL: 135 mg/dL
  RALB: 3.9 g/dL
  TBIL: 0.3 mg/dL
  TC: 73 mg/dL
  TG: 68.8 mg/dL
  TP: 5.8 g/dL
  gamma-GTP: 1.4 IU/L
[…], time 7 day
  TERMINAL_BW: 255.4 g
  APTT: 15.8 s
  Bas: 0%
  Eos: 1.2%
  Fbg: 222.8 mg/dL
  Hb: 14.2 g/dL
  Ht: 42.4%
  Lym: 76.6%
  MCH: 21.8 pg
  MCHC: 33.4%
  MCV: 65.2 fL
  Mono: 7.2%
  Neu: 14.8%
  PT: 12 s
  Plat: 96.5 x10_4/uL
  RBC: 651.2 x10_4/ul
  Ret: 5.9%
  WBC: 105.4 x10_2/uL
  KIDNEY_L: 1.1 g
  KIDNEY_R: 1.2 g
  KIDNEY_TOTAL: 2.3 g
  LIVER: 12.9 g
  A/G: 2
  ALP: 912 IU/L
  ALT: 33.4 IU/L
  AST: 58.6 IU/L
  BUN: 19.2 mg/dL
  CRE: 0.6 mg/dL
  Ca: 10.3 mg/dL
  Cl: 105.2 meq/L
  DBIL: 0.024 mg/dL
  GLC: 193.6 mg/dL
  IP: 7.7 mg/dL
  K: 4.8 meq/L
  LDH: 95.8 IU/L
  Na: 137.4 meq/L
  PL: 148.6 mg/dL
  RALB: 4 g/dL
  TBIL: 0.4 mg/dL
  TC: 78.2 mg/dL
  TG: 94.6 mg/dL
  TP: 5.9 g/dL
  gamma-GTP: 1 IU/L
[…], time 14 day
  TERMINAL_BW: 321.1 g
  APTT: 16 s
  Bas: 0%
  Eos: 1%
  Fbg: 237.6 mg/dL
  Hb: 14.4 g/dL
  Ht: 43%
  Lym: 78.8%
  MCH: 21.2 pg
  MCHC: 33.5%
  MCV: 63.2 fL
  Mono: 6.4%
  Neu: 13.8%
  PT: 11.9 s
  Plat: 106.8 x10_4/uL
  RBC: 681.2 x10_4/ul
  Ret: 5.2%
  WBC: 160.8 x10_2/uL
  KIDNEY_L: 1.3 g
  KIDNEY_R: 1.3 g
  KIDNEY_TOTAL: 2.6 g
  LIVER: 15.7 g
  A/G: 1.8
  ALP: 615.2 IU/L
  ALT: 31.2 IU/L
  AST: 58.2 IU/L
  BUN: 18.6 mg/dL
  CRE: 0.6 mg/dL
  Ca: 10.2 mg/dL
  Cl: 105.6 meq/L
  DBIL: 0.004 mg/dL
  GLC: 189 mg/dL
  IP: 7.6 mg/dL
  K: 4.9 meq/L
  LDH: 98 IU/L
  Na: 138.4 meq/L
  PL: 155.6 mg/dL
  RALB: 4 g/dL
  TBIL: 0.3 mg/dL
  TC: 79 mg/dL
  TG: 136.4 mg/dL
  TP: 6.2 g/dL
  gamma-GTP: 1.2 IU/L
[…], time 28 day
  TERMINAL_BW: 417.1 g
  APTT: 16.5 s
  Bas: 0%
  Eos: 1.2%
  Fbg: 221 mg/dL
  Hb: 15.2 g/dL
  Ht: 45.9%
  Lym: 83.4%
  MCH: 19.3 pg
  MCHC: 33.1%
  MCV: 58.5 fL
  Mono: 4.8%
  Neu: 10.8%
  PT: 11.7 s
  Plat: 97.1 x10_4/uL
  RBC: 783.8 x10_4/ul
  Ret: 2.5%
  WBC: 133.5 x10_2/uL
  KIDNEY_L: 1.4 g
  KIDNEY_R: 1.5 g
  KIDNEY_TOTAL: 2.9 g
  LIVER: 18.2 g
  A/G: 1.8
  ALP: 643.6 IU/L
  ALT: 32.6 IU/L
  AST: 54.2 IU/L
  BUN: 18.6 mg/dL
  CRE: 0.7 mg/dL
  Ca: 10.6 mg/dL
  Cl: 105.4 meq/L
  DBIL: 0.014 mg/dL
  GLC: 193 mg/dL
  IP: 7.5 mg/dL
  K: 4.3 meq/L
  LDH: 102 IU/L
  Na: 140 meq/L
  PL: 160.4 mg/dL
  RALB: 4.2 g/dL
  TBIL: 0.3 mg/dL
  TC: 77 mg/dL
  TG: 140.6 mg/dL
  TP: 6.5 g/dL
  gamma-GTP: 1 IU/L
